A short description of data set [1]: Difference between light absorption intensity before and after heat development (absorbance at 415 nm), Examples 1 and 2. The note with it: A/B×100 (after/before heat development, silver iodide-free sample as base), development 24 seconds, Example 1. The protocol:
(§1) Each sample was thermally developed with Fuji Medical Dry Laser Imager FM-DPL Model in which the temperatures of four panel heaters were set at 112° C., 118° C., 120° C. and 120° C., respectively and which the overall development time was set at 24 seconds.
Using a spectral photometer U-4100 (manufactured by Hitachi) equipped with an integrating sphere, the spectral absorbance of each sample was measured. […] The change rate of the absorbance at 415 nm of each of samples 11 to 20 before heat development and that after heat development was measured. Apart from the above samples, silver iodide-free sample was prepared, and the absorbance thereof at 415 nm was used as a base standard. The absorbance reduction rate of each sample was computed according to the formula mentioned below.
Absorbance reduction rate (%)=A/B×100
(§2) A=(absorbance of a sample after heat development)−(absorbance of a silver iodide-free sample after heat development)
(§3) B=(absorbance of the sample before heat development)−(absorbance of a silver iodide-free sample before heat development)

A short description of data set [2]: Retention of absorbance at 415 nm after heat development, Examples 3 and 4. To be noted: A/B×100 (after/before heat development), development 24 seconds, grain size 0.12 μm, Example 3. The protocol: as §1
Using a spectral photometer U-4100 (manufactured by Hitachi) equipped with an integrating sphere, the spectral absorbance of each sample was measured. The change rate of the absorbance at 415 nm of each sample before heat development and that after heat development was measured. Apart from the above samples, silver iodide-free sample was prepared, and the absorbance thereof at 415 nm was used as a base standard. The retention of absorbance of each sample was computed according to the formula mentioned below. The smaller the retention, the larger the reduction in absorption, which is preferable.
Retention of Absorbance (%)=A/B×100
as §2, §3

Data set [3] can be described thus: Measurement of acid dissociation constant pKa by potentiometric titration. In kind it is physicochemical. The note with it: 25° C.; for pKa of Conjugate Acid: Table 2. The protocol:
Using an automatic potentiometric titration meter, Kyoto Electronic Industry's AT-420, the acid dissociation constant (pKa) of the conjugate acid of the compound of formula (1) in a mixed solution of tetrahydrofuran and water (3/2) was measured at 25° C.
Using an automatic potentiometric titration meter, Kyoto Electronic Industry's AT-420, the acid dissociation constant (pKa) of the conjugate acid of the silver iodide complex-forming agent in a mixed solution of tetrahydrofuran and water (3/2) was measured at 25° C.

For data set [4] the following is noted: Hammett's substituent constants of Y11 to Y14; constants from Chemical Review, 1991, Vol. 91; cited from earlier work.
Setting [5] is: compound of formula (1) or (2), tetrahydrofuran/water (3/2).
The mark [6] stands for this setting: conjugate acid of the silver iodide complex-forming agent, tetrahydrofuran/water (3/2), Table 5.
Setting [7] is: conjugate acid of the silver iodide complex-forming agent, tetrahydrofuran/water (3/2), Table 8.

The structures appear in SMILES notation. Read-outs that look alike come from different tables or passages of the source.

With `CC(C)c1ccc2cnncc2c1` [6-isopropylphthalazine], in data set [1], the “Absorbance Change Rate (%)” value was “may lower the absorption intensity”. The “Silver Iodide Absorption Retention (%)” value in data set [2] is given as “more effective than phthalazine”.
The pKa is the negative logarithm of the acid dissociation constant. Regarding `O=C(Nc1ccncc1)c1ccccc1` [Sample F-325], in data set [3] (setting [5]), the “pKa of Conjugate Acid” value worked out at 4.2. The pKa is 4.2 in data set [3] (setting [6]); 4.2 in data set [3] (conjugate acid of the silver iodide complex-forming agent, tetrahydrofuran/water (3/2), Table 6); 4.2 in data set [3] (setting [7]). Also, the “Compound of Formula (1) or (2) pKa” value in data set [3] (conjugate acid, tetrahydrofuran/water (3/2), Table 1) was found to be 4.2. The “Silver Iodide Complex-forming Agent pKa” value in data set [3] (conjugate acid, tetrahydrofuran/water (3/2), Table 3) was determined as 4.2.
As for `Cc1nnc(C)c(C)c1C` [Sample F-404], the “pKa of Conjugate Acid” value in data set [3] (setting [5]) turned out to be 5.4. Also, the pKa in data set [3] (setting [6]) and in data set [3] (setting [7]) was 5.4 throughout.
Turning to `c1ccc(-c2ccnnc2)cc1` [Sample F-405], the “pKa of Conjugate Acid” value in data set [3] (setting [5]) worked out at 3.6. Besides, the pKa in data set [3] (setting [6]) and in data set [3] (setting [7]) was 3.6 in each case.
For `c1cc2cnncc2s1` [Sample F-421], the pKa in data set [3] (tetrahydrofuran/water (3/2) mixed solution, compound of formula (1) or (2), Table 2, read-out: pKa of Conjugate Acid) turned out to be 4.2.
Regarding `Cc1cccc2c(=O)[nH]ncc12` [Sample I-1], in data set [4], the “Total Sum of σ p” value was −0.17.
As for `Cc1ccc2c(=O)[nH]ncc2c1` [Sample I-2], the “Total Sum of σ p” value in data set [4] is −0.17.
As for `Cc1ccc2cn[nH]c(=O)c2c1` [Sample I-3], in data set [4], the “Total Sum of σ p” value is recorded as −0.17.
Turning to `Cc1cccc2cn[nH]c(=O)c12` [Sample I-4], in data set [4], the “Total Sum of σ p” value is −0.17.
On to `CCc1cccc2c(=O)[nH]ncc12` [Sample I-5], for which the “Total Sum of σ p” value in data set [4] is −0.15.
For `CCc1ccc2c(=O)[nH]ncc2c1` [Sample I-6], the “Total Sum of σ p” value in data set [4] is −0.15.
`CCc1ccc2cn[nH]c(=O)c2c1` [Sample I-7]: the “Total Sum of σ p” value in data set [4] is −0.15.
As to `CCc1cccc2cn[nH]c(=O)c12` [Sample I-8], in data set [4], the “Total Sum of σ p” value is −0.15.
For the molecule `CCCc1ccc2c(=O)[nH]ncc2c1` [Sample I-9], the “Total Sum of σ p” value in data set [4] is −0.13.
For the molecule `CCCc1cccc2c(=O)[nH]ncc12` [Sample I-10], in data set [4], the “Total Sum of σ p” value is −0.13.
`CCCc1ccc2cn[nH]c(=O)c2c1` [Sample I-11]: the “Total Sum of σ p” value in data set [4] is −0.13.
For the molecule `CCCc1cccc2cn[nH]c(=O)c12` [Sample I-12], the “Total Sum of σ p” value in data set [4] is given as −0.13.
Consider `CC(C)c1ccc2c(=O)[nH]ncc2c1` [Sample I-13], for which the “Total Sum of σ p” value in data set [4] is given as −0.15.
In the case of `CCCCc1ccc2c(=O)[nH]ncc2c1` [Sample I-14], the “Total Sum of σ p” value in data set [4] was −0.16.
Take `O=c1[nH]ncc2cc(-c3ccccc3)ccc12` [Sample I-15]: the “Total Sum of σ p” value in data set [4] is −0.01.
Turning to `CC(C)Cc1ccc2c(=O)[nH]ncc2c1` [Sample I-16], in data set [4], the “Total Sum of σ p” value is −0.12.
Consider `CC(C)(C)c1ccc2c(=O)[nH]ncc2c1` [Sample I-17], for which the “Total Sum of σ p” value in data set [4] was −0.20.
`Cc1cc2cn[nH]c(=O)c2cc1C` [Sample I-18]: the “Total Sum of σ p” value in data set [4] is recorded as −0.34.
Regarding `Cc1ccc2c(=O)[nH]ncc2c1C` [Sample I-19], the “Total Sum of σ p” value in data set [4] is given as −0.34.
With `Cc1cc2c(=O)[nH]ncc2c(C)c1C` [Sample I-20], in data set [4], the “Total Sum of σ p” value is recorded as −0.51.
As to `CCc1cc2cn[nH]c(=O)c2cc1C` [Sample I-21], the “Total Sum of σ p” value in data set [4] is −0.32.
Consider `CC(C)c1ccc2cn[nH]c(=O)c2c1` [Sample I-22], for which, in data set [4], the “Total Sum of σ p” value was −0.15.
With `CCCCc1ccc2cn[nH]c(=O)c2c1` [Sample I-23], in data set [4], the “Total Sum of σ p” value is recorded as −0.16.
Consider `CCC(C)c1ccc2cn[nH]c(=O)c2c1` (stereo not shown) [Sample I-24], for which the “Total Sum of σ p” value in data set [4] is −0.12.
As to `CC(C)Cc1ccc2cn[nH]c(=O)c2c1` [Sample I-25], the “Total Sum of σ p” value in data set [4] was −0.12.
Take `COc1cccc2c(=O)[nH]ncc12` [Sample I-26]: the “Total Sum of σ p” value in data set [4] was −0.27.
With `COc1ccc2c(=O)[nH]ncc2c1` [Sample I-27], the “Total Sum of σ p” value in data set [4] is recorded as −0.27.
Regarding `COc1ccc2cn[nH]c(=O)c2c1` [Sample I-28], the “Total Sum of σ p” value in data set [4] is reported as −0.27.
Turning to `COc1cccc2cn[nH]c(=O)c12` [Sample I-29], in data set [4], the “Total Sum of σ p” value is reported as −0.27.
Turning to `CCOc1cccc2c(=O)[nH]ncc12` [Sample I-30], the “Total Sum of σ p” value in data set [4] is −0.24.
Take `CCOc1ccc2c(=O)[nH]ncc2c1` [Sample I-31]: the “Total Sum of σ p” value in data set [4] is −0.24.
In the case of `CCOc1ccc2cn[nH]c(=O)c2c1` [Sample I-32], the “Total Sum of σ p” value in data set [4] is recorded as −0.24.
As for `CCOc1cccc2cn[nH]c(=O)c12` [Sample I-33], the “Total Sum of σ p” value in data set [4] was −0.24.
Take `CCCOc1cccc2c(=O)[nH]ncc12` [Sample I-34]: the “Total Sum of σ p” value in data set [4] is listed as −0.32.
Turning to `CCCOc1ccc2c(=O)[nH]ncc2c1` [Sample I-35], the “Total Sum of σ p” value in data set [4] is reported as −0.32.
As to `CCCOc1ccc2cn[nH]c(=O)c2c1` [Sample I-36], the “Total Sum of σ p” value in data set [4] is on record as −0.32.
For `CCCOc1cccc2cn[nH]c(=O)c12` [Sample I-37], in data set [4], the “Total Sum of σ p” value is −0.32.
As to `CC(C)Oc1ccc2c(=O)[nH]ncc2c1` [Sample I-38], in data set [4], the “Total Sum of σ p” value is −0.33.
`CCCCOc1ccc2c(=O)[nH]ncc2c1` [Sample I-39]: in data set [4], the “Total Sum of σ p” value was −0.34.
For the molecule `COc1cc2cn[nH]c(=O)c2cc1OC` [Sample I-40], the “Total Sum of σ p” value in data set [4] was −0.54.
Turning to `COc1ccc2c(=O)[nH]ncc2c1OC` [Sample I-41], in data set [4], the “Total Sum of σ p” value is recorded as −0.54.
As for `COc1cc2c(=O)[nH]ncc2c(OC)c1OC` [Sample I-42], the “Total Sum of σ p” value in data set [4] is listed as −0.81.
Consider `O=c1[nH]ncc2cc(Oc3ccccc3)ccc12` [Sample I-47], for which, in data set [4], the “Total Sum of σ p” value is −0.03.
Consider `O=c1[nH]ncc2ccc(Oc3ccccc3)cc12` [Sample I-48], for which the “Total Sum of σ p” value in data set [4] was −0.03.
As to `CCN(CC)c1ccc2c(=O)[nH]ncc2c1` [Sample I-59], the “Total Sum of σ p” value in data set [4] is −0.72.
Turning to `Nc1ccc2c(=O)[nH]ncc2c1` [Sample I-60], the “Total Sum of σ p” value in data set [4] was −0.66.
On to `CC(=O)Nc1ccc2c(=O)[nH]ncc2c1` [Sample I-61], for which the “Total Sum of σ p” value in data set [4] is recorded as 0.00.
`O=C(Nc1ccc2c(=O)[nH]ncc2c1)c1ccccc1` [Sample I-62]: the “Total Sum of σ p” value in data set [4] was −0.19.
With `O=c1[nH]ncc2cc(NS(=O)(=O)c3ccccc3)ccc12` [Sample I-65], in data set [4], the “Total Sum of σ p” value is 0.01.
Turning to `CC(=O)Oc1ccc2cn[nH]c(=O)c2c1` [Sample I-69], the “Total Sum of σ p” value in data set [4] is 0.31.
Take `CN(C)c1ccc2cn[nH]c(=O)c2c1` [Sample I-74]: in data set [4], the “Total Sum of σ p” value was −0.83.
Turning to `c1ccc2cnncc2c1` [phthalazine, Phthalazine], in data set [2], the “Silver Iodide Absorption Retention (%)” value was “effective for reducing the absorption intensity”.

(Values after patent US20040137389A1, “Heat-developable light-sensitive material” (priority 2002, published 2004).)
